Test results: EP0888346B1, “CORALYNE ANALOGS AS TOPOISOMERASE INHIBITORS” (RUTGERS, THE STATE UNIVERSITY OF NEW JERSEY, priority 1996, dated 1997)
Values after ≈ are worked out from the molar mass of the structure shown. Like-named read-outs stand apart in the source and are kept apart here.

Experiments:
[1] = system: human epidermoid carcinoma KB 3-1 cell line; assay: MTA cytotoxicity assay, epidermoid carcinoma cells; type: cell-based; conditions: KB 3-1, 96 h, read-out: Cytotoxicity KB3-1
Method: (§1) The results were plotted and the IC50 then measured.
The coralyne analog 7c was tested for its effectiveness against glioblastoma cells. The assay used was similar to that described above for the RPMI-8402 cell line. The results are shown in table 2 below which compares the effect of Compound 7c against the leukemia cell line (RPMI 8402), epidermal carncinoma (KB3-1) and glioblastoma (SF-268): Table 2

[2] = system: yeast cells expressing functional yeast topoisomerase I; assay: Yeast cytotoxicity assay, strain expressing wild-type yeast topo I; type: cell-based, S. cerevisiae; conditions: plates with 1 µM drug (camptothecin 0.5 µM), 3 days at 30°C
From the text: It has been established that yeast can survive when topoisomerase I function is obliterated, and that the topoisomerase I poisons only kill cells having a functional topoisomerase I (Bjornsti et al. Cancer Res. 49:6318-6323 (1989)).
The topoisomerase I-specific in vivo cytotoxicity assay was adapted from Knab et al. (Knab et al., J. Biol. Chem. 268:22322-22330 (1993)). In this system, various topo I genes cloned into the single copy yeast plasmid vector, YCpGAL1 (Knab et al., J. Biol. Chem. 268:22322-22330 (1993)), are expressed under the control of the GAL1 promoter in the JN2-134 strain of S. cerevisiae (MATa, rad52::LEU2, trp1, ade2-1,his7, ura3-52, isel, top1-1, leu2) (Bjornsti et al., Cancer Res. 49:6318-6323 (1989)). The topo I constructs in the vector are, respectively, the wild-type yeast topo I (YCpGAL-ScTOP1), a non-functional yeast topo I where the active site tyrosine-727 is mutated to a phenylalanine (YCpGAL1-Sctop1Y727F) (Knab et al., J. Biol. Chem. 268:22322-22330 (1993)), and the wild type human topoisomerase I (YCpGAL-hTOP1) (Bjornsti et al., Cancer Res. 49:6318-6323 (1989)). To qualitatively test the cytotoxicity and the topo I specificity of the drugs, yeast cells containing the specific plasmid were serially diluted (5-fold) and were grown in dropout medium supplemented with uracil and 2% galactose In addition, the plates contained: A: Control, no drug in the plate; B: Camptothecin (CPT), 0.5 µM; C: Coralyne, 1 µM; D: Methylenedioxy-dihydro-demethyl-coralyne (MDD-Coralyne), 1 µM, and E: Nitidine, 1 µM. The plates were grown for 3 days at 30°C to assess the lethal effect of the different compounds on the various topoisomerase I enzymes expressed in S. cerevisiae.and the drug being tested.

[3] = molecular target: T1, recombinant CPT-K5 topoisomerase I (Homo sapiens, UniProt P11387, D533G); assay: Cleavage assay with camptothecin-resistant mutant topo I; type: biochemical; conditions: relative to wildtype human topoisomerase I
T1 construct: 15 amino acid vector-derived fusion (pET-11a leader); made in house; host or cells: E. coli BL21(DE3)
T1 sequence (P11387 1-765 D533G): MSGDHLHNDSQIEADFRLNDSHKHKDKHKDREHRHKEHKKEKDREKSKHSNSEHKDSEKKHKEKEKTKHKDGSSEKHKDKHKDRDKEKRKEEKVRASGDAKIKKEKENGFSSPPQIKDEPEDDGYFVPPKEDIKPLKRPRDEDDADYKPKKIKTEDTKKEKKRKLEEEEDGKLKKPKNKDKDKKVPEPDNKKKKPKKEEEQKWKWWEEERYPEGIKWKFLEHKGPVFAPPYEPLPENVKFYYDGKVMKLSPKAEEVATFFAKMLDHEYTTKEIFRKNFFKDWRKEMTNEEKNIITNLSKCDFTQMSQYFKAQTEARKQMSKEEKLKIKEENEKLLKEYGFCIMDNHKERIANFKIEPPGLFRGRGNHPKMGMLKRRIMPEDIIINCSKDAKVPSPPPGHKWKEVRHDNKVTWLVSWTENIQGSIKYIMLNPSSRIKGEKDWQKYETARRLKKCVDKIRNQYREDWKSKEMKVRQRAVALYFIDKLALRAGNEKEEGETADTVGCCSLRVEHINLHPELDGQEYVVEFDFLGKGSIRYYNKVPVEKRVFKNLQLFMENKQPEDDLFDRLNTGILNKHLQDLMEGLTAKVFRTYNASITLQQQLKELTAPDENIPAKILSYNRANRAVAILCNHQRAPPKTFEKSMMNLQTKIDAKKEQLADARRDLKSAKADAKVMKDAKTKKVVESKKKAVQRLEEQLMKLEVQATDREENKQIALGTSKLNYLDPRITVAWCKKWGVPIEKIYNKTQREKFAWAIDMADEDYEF
Method: Cleavage assays for the recombinant topoisomerases I and calf thymus topoisomerases I and II were done as described (Liu et al., J. Biol. Chem. 258:15365-15370 (1983)). The plasmid YEpG DNA used for the cleavage assays was prepared and labeled at its 3'-end using the published procedures.

[4] = system: camptothecin-resistant CPT-K5 cells; assay: MTT-microtiter plate tetrazolinium cytotoxicity assay (MTA), camptothecin-resistant cells; conditions: Homo sapiens, CPT-K5, 96 h, read-out: Cytotoxicity IC50 CPT-K5
Method: The IC50 of the drugs tested were determined by the MTT-microtiter plate tetrazolinium cytotoxicity assay (MTA) (Mosmann, T., J. Immunol. Methods 65:55-63 (1983); Denizot et al., J. Immunol. Methods 89:271-277 (1986)). Human lymphoblast RPMI 8402 cells and their camptothecin-resistant CPT-K5 cells (Andoh et al., Proc. Natl. Acad. Sci., USA 84:5565-5569 (1987)) were kindly provided by Dr. Toshiwo Andoh (Aichi Cancer Center Research Institute, Nagoya, Japan). […] Cells (2000 cells/well, seeded in […] growth medium) were grown in suspension at 37°C in 5% CO2 and maintained by regular passage in RPMI medium supplemented with 10% heat inactivated fetal bovine serum, L-glutamine (2 mM), penicillin (100 U/ml), and streptomycin (0.1 mg/ml). The cells were exposed continuously for 4 days to different drug concentrations, and assayed at the end of the fourth day. Each concentration and the no drug control were repeated at least twice in 6 replica wells. The results were plotted and the IC50 then measured. The drug sensitive human epidermoid carcinoma KB 3-1 cell line and its vinblastine-selected multidrug-resistant variant KB-V1 cells (Akiyama et al., Genetics 11:117-126 (1985)) were kindly provided by Dr. Michael Gottesmann (National Cancer Institute). They were grown as monolayer cultures at 37°C in 5% CO2 and maintained by regular passage in Dulbecco's minimal essential medium supplemented with 10% heat inactivated fetal bovine serum. KB-V1 cells were maintained in the presence of […] vinblastine.

[5] = system: Human lymphoblast RPMI 8402 cells; assay: MTT-microtiter plate tetrazolinium cytotoxicity assay (MTA); type: cell-based; conditions: Homo sapiens, RPMI 8402, 96 h
From the text: as §1

Question: Which IC50 [1] does the source give for CC[C@@]1(O)C(=O)OCc2c1cc1n(c2=O)Cc2cc3ccccc3nc2-1 [CPT, camptothecin, reference compound] here?
Answer: 4 ng/mL (≈ 0.0115 µM)

Question: What about the “cytotoxicity against yeast cells expressing functional yeast topoisomerase I (in words)” value [2] of the same molecule?
Answer: quite sensitive

Question: And the “resistance of recombinant CPT-K5 topoisomerase I to the drug” value [3]?
Answer: over 1000 fold

Question: What about the IC50 [4] of the same molecule?
Answer: > 10000 nM

Question: What about the IC50 ([5]; read-out: Cytotoxicity IC50 RPMI) of the same molecule?
Answer: 4 nM

Question: What about the IC50 ([5]; read-out: Cytotoxicity RPMI 8402) of the same molecule?
Answer: 3 ng/mL
